Experimental data as given in patent US20090170830A1, “Tricyclic Beta-Secretase Inhibitors for the Treatment of Alzheimer's Disease” (priority 2005, published 2009).

Biological target: T1, beta-secretase enzyme (BACE 1), soluble human protein (Homo sapiens, UniProt P56817)
T1 construct: soluble (transmembrane domain and cytoplasmic extension excluded) human protein; made in house
Experiment: ECL assay: homogeneous end point electrochemiluminescence assay with biotinylated BACE substrate
Type: biochemical
Settings: pH 4.5, rt, 30 min, 10% DMSO, range bounds printed in mixed units (lower nM, upper μM)
Method: Enzyme inhibition may be determined as follows.
ECL Assay: A homogeneous end point electrochemiluminescence (ECL) assay is employed using a biotinylated BACE substrate. The Km of the substrate is greater than 100 μM and can not be determined due to the limit of solubility of the substrate. A typical reaction contains approximately 0.1 nM enzyme, 0.25 μM of the substrate, and buffer (50 mM NaOAc, pH 4.5, 0.1 mg/ml BSA, 0.2% CHAPS, 15 mM EDTA and 1 mM deferoxamine) in a total reaction volume of 100 μl. The reaction proceeds for 30 min and is then stopped by the addition of 25 μL of 1 M Tris-HCl, pH 8.0. The resulting enzymatic product is assayed by adding a ruthenylated antibody which specifically recognizes the C-terminal residue of the product. Streptavidin coated magnetic beads are added into the solution and the samples are subjected to M-384 (Igen Inc., Gaithersburg, Md.) analysis. Under these conditions, less than 10% of substrate is processed by BACE 1. The enzyme used in these studies is soluble (transmembrane domain and cytoplasmic extension excluded) human protein produced in a baculovirus expression system. To measure the inhibitory potency for compounds, 12 concentrations of inhibitors are prepared starting from 100 μM with three fold series dilution. Solutions of the inhibitor in DMSO are included in the reaction mixture (final DMSO concentration is 10%). […]

T1 sequence (P56817 46-457 limits assumed): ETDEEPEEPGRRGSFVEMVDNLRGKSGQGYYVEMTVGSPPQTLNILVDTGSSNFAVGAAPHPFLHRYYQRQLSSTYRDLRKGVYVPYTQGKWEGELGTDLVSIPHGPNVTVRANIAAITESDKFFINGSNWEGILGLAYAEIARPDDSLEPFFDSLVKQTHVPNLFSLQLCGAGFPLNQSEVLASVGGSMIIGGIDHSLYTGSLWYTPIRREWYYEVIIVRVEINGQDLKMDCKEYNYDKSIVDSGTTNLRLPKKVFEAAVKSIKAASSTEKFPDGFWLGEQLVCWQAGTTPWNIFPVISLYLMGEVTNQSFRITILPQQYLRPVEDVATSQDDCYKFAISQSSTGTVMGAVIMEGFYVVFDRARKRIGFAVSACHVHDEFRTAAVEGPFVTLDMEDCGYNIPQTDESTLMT

SMILES: CCc1cn2c3c(cc(-c4nnc([C@](C)(N)Cc5ccccc5)o4)cc13)N(C)S(=O)(=O)CC2 [Example 1, (2R)-2-[5-(7-ethyl-1-methyl-2,2-dioxido-3,4-dihydro-1H-[1,2,5]thiadiazepino[3,4,5-hi]indol-9-yl)-1,3,4-oxadiazol-2-yl]-1-phenylpropan-2-amine]
- IC50 in inhibiting the beta-secretase enzyme: 1 nM and 100000 nM
